Test results published in patent publication US7056924B2, “Substituted heterocyclic compounds” (CV Therapeutics, Inc., priority 2002, dated 2006).

System: Palmitoyl CoA oxidation in rat heart mitochondria
Experiment: Mitochondrial assay: Palmitoyl CoA oxidation
Format: biochemical
Settings: 16 microM 1-C14 palmitoyl CoA, 15 min at 30° C., read-out: Effect of Compounds of the Invention on Palmitoyl CoA Oxidation (IC50)
Protocol: Rat heart mitochondria were isolated by the method of Nedergard and Cannon (Methods in Enzymol. 55, 3, 1979).
Palmitoyl CoA oxidation—The Palmitoyl CoA oxidation was carried out in a total volume of 100 micro liters containing the following agents: 110 mM KCl, 33 mM Tris buffer at pH 8, 2 mM KPi, 2 mM MgCl2, 0.1 mM EDTA, 14.7 microM defatted BSA, 0.5 mM malic acid, 13 mM carnitine, 1 mM ADP, 52 micrograms of mitochondrial protein, and 16 microM 1-C14 palmitoyl CoA (Sp. Activity 60 mCi/mmole; 20 microCi/ml, using 5 microliters per assay). The compounds of this invention were added in a DMSO solution at the following concentrations: 100 micro molar, 30 micro molar, and 3 micro molar. In each assay, a DMSO control was used. After 15 min at 30° C., the enzymatic reaction was centrifuged (20,000 g for 1 min), and 70 microliters of the supernatant was added to an activated reverse phase silicic acid column (approximately 0.5 ml of silicic acid). The column was eluted with 2 ml of water, and 0.5 ml of the eluent was used for scintillation counting to determine the amount of C^14 trapped as C^14 bicarbonate ion.

| IC50 | Compound |
| --- | --- |
| 410 nM | (2R)-3-{(2S)-2-methyl-4-[(3-phenylisoxazol-5-yl)methyl]piperazinyl}-1-(2-methylbenzothiazol-5-yloxy)propan-2-ol |
| 100 nM | Cc1nc2cc(OC[C@H](O)CN3CCN(Cc4nc(-c5ccc(Cl)cc5Cl)no4)C[C@@H]3C)ccc2s1 [(2R)-1-((2S)-4-{[3-(2,4-dichlorophenyl)(1,2,4-oxadiazol-5-yl)]methyl}-2-methylpiperazinyl)-3-(2-methylbenzothiazol-5-yloxy)propan-2-ol] |
| 1140 nM | (2R)-1-(4-{[5-(2-chlorophenyl)(1,2,4-oxadiazol-3-yl)]methyl}piperazinyl)-3-(2-methylbenzothiazol-5-yloxy)propan-2-ol |
| 4800 nM | (2R)-3-(2-methylbenzothiazol-5-yloxy)-1-[4-({5-[4-(trifluoromethyl)phenyl](1,3,4-oxadiazol-2-yl)}methyl)piperazinyl]propan-2-ol |
| 440 nM | 3-{(2R)-2-methyl-4-[(5-phenylisoxazol-3-yl)methyl]piperazinyl}(2S)-1-(2-methylbenzothiazol-5-yloxy)propan-2-ol |
| 970 nM | (2R)-3-((3S)-3-methyl-4-{[5-(4-phenylphenyl)isoxazol-3-yl]methyl}piperazinyl)-1-(2-methylbenzothiazol-5-yloxy)propan-2-ol |
| 530 nM | Cc1nc2cc(OC[C@H](O)CN3CCN(Cc4nnc(-c5ccc(C(F)(F)F)cc5)o4)C[C@@H]3C)ccc2s1 [(2R)-1-[(2S)-2-methyl-4-({5-[4-(trifluoromethyl)phenyl](1,3,4-oxadiazol-2-yl)}methyl)piperazinyl]-3-(2-methylbenzothiazol-5-yloxy)propan-2-ol] |
| 1240 nM | (2R)-3-((2S)-4-{[5-(4-methoxyphenyl)(1,3,4-oxadiazol-2-yl)]methyl}-2-methylpiperazinyl)-1-(2-methylbenzothiazol-5-yloxy)propan-2-ol |
| 2100 nM | (2R)-1-(4-{[5-(2-chlorophenyl)(1,3,4-oxadiazol-2-yl)]methyl}piperazinyl)-3-(2-methylbenzothiazol-5-yloxy)propan-2-ol |
| 1340 nM | (2R)-1-(4-{[3-(2-chlorophenyl)(1,2,4-oxadiazol-5-yl)]methyl}piperazinyl)-3-(2-methylbenzothiazol-5-yloxy)propan-2-ol |
| 730 nM | (2R)-3-((2S)-4-{[5-(3,4-dichlorophenyl)isoxazol-3-yl]methyl}-2-methylpiperazinyl)-1-(2-methylbenzothiazol-5-yloxy)propan-2-ol |
| 250 nM | (2R)-3-((3S)-3-methyl-4-{[5-(4-trifluoromethylphenyl)isoxazol-3-yl]methyl}-piperazinyl)-1-(2-methylbenzothiazol-5-yloxy)propan-2-ol |
| 1150 nM | (2R)-1-{(2S)-2-methyl-4-[(5-(2-naphthyl)(1,3,4-oxadiazol-2-yl))methyl]piperazinyl}-3-(2-methylbenzothiazol-5-yloxy)propan-2-ol |
| 2100 nM | (2R)-3-{(2S)-2-methyl-4-[(5-phenylbenzoxazol-2-yl)methyl]piperazinyl}-1-(2-methylbenzothiazol-5-yloxy)propan-2-ol |
| 1570 nM | (2R)-1-{(2S)-2-methyl-4-[(5-phenyl(1,3,4-oxadiazol-2-yl))methyl]piperazinyl}-3-(2-methylbenzothiazol-5-yloxy)propan-2-ol |
| 340 nM | (2R)-1-{(3S)-3-methyl-4-[(2-phenyl(1,3-thiazol-4-yl))methyl]piperazinyl}-3-(2-methylbenzothiazol-5-yloxy)propan-2-ol |
| 1180 nM | (2R)-1-((2S)-2-methyl-4-{[5-(4-phenylphenyl)(1,3,4-oxadiazol-2-yl)]methyl}piperazinyl)-3-(2-methylbenzothiazol-5-yloxy)propan-2-ol |
| 340 nM | (2R)-3-((2S)-4-{[5-(2-chlorophenyl)(1,3,4-oxadiazol-2-yl)]methyl}-2-methylpiperazinyl)-1-(2-methylbenzothiazol-5-yloxy)propan-2-ol |
| 1480 nM | (2R)-1-[(2S)-4-({5-[4-(dimethylamino)phenyl](1,3,4-oxadiazol-2-yl)}methyl)-2-methylpiperazinyl]-3-(2-methylbenzothiazol-5-yloxy)propan-2-ol |
| 690 nM | (2R)-1-((2S)-4-{[5-(4-chlorophenyl)(1,3,4-oxadiazol-2-yl)]methyl}-2-methylpiperazinyl)-3-(2-methylbenzothiazol-5-yloxy)propan-2-ol |
| 600 nM | (2R)-3-[(2S)-2-methyl-4-({5-[2-chlorophenyl]isoxazol-3-yl}methyl)piperazinyl]-1-(2-methylbenzothiazol-5-yloxy)propan-2-ol |

| IC50 | Compound |
| --- | --- |
| 1100 nM | (2R)-1-[4-({5-[4-(tert-butyl)phenyl](1,3,4-oxadiazol-2-yl)}methyl)piperazinyl]-3-(2-methylbenzothiazol-5-yloxy)propan-2-ol |
| 230 nM | (2R)-3-(2-methylbenzothiazol-5-yloxy)-1-(4-{[3-(2-methylphenyl)(1,2,4-oxadiazol-5-yl)]methyl}piperazinyl)propan-2-ol |
| 6300 nM | (2R)-3-(2-methylbenzothiazol-5-yloxy)-1-[4-({5-[3-(trifluoromethyl)phenyl](1,3,4-oxadiazol-2-yl)}methyl)piperazinyl]propan-2-ol |
| 330 nM | (2R)-3-{(3S)-3-methyl-4-[(5-(4-chlorophenyl)isoxazol-3-yl)methyl]piperazinyl}-1-(2-methylbenzothiazol-5-yloxy)propan-2-ol |
| 1170 nM | (2R)-3-(2-methylbenzothiazol-5-yloxy)-1-(4-{[5-(2-methylphenyl)(1,2,4-oxadiazol-3-yl)]methyl}piperazinyl)propan-2-ol |
| 5700 nM | (2R)-1-(4-{[3-(2-fluorophenyl)(1,2,4-oxadiazol-5-yl)]methyl}piperazinyl)-3-(2-methylbenzothiazol-5-yloxy)propan-2-ol |
| 410 nM | (2R)-1-((3S)-4-{[2-(4-chlorophenyl)(1,3-thiazol-4-yl)]methyl}-3-methylpiperazinyl)-3-(2-methylbenzothiazol-5-yloxy)propan-2-ol |
| 8500 nM | (2R)-1-(4-{[5-(4-chlorophenyl)(1,3,4-oxadiazol-2-yl)]methyl}piperazinyl)-3-(2-methylbenzothiazol-5-yloxy)propan-2-ol |
| 990 nM | (2R)-3-(2-methylbenzothiazol-5-yloxy)-1-(4-{[5-(4-phenylphenyl)(1,3,4-oxadiazol-2-yl)]methyl}piperazinyl)propan-2-ol |
| 250 nM | (2R)-3-{(3S)-3-methyl-4-[(5-(3,4-dichlorophenyl)isoxazol-3-yl)methyl]piperazinyl}-1-(2-methylbenzothiazol-5-yloxy)propan-2-ol |
| 740 nM | (2R)-3-{(3S)-3-methyl-4-[(3-(4-methoxyphenyl)isoxazol-5-yl)methyl]piperazinyl}-1-(2-methylbenzothiazol-5-yloxy)propan-2-ol |
| 210 nM | (2R)-1-[(3S)-3-methyl-4-({2-[4-(trifluoromethyl)phenyl](1,3-thiazol-4-yl)}methyl)piperazinyl]-3-(2-methylbenzothiazol-5-yloxy)propan-2-ol |
| 370 nM | (2R)-3-[(2S)-2-methyl-4-({2-[4-(trifluoromethyl)phenyl](1,3-oxazol-5-yl)}methyl)piperazinyl]-1-(2-methylbenzothiazol-5-yloxy)propan-2-ol |
| 540 nM | (2R)-1-((2S)-2-methyl-4-{[5-(4-methylphenyl)(1,3,4-oxadiazol-2-yl)]methyl}piperazinyl)-3-(2-methylbenzothiazol-5-yloxy)propan-2-ol |
| 140 nM | Cc1nc2cc(OC[C@H](O)CN3CCN(Cc4cc(-c5ccc(Cl)cc5)on4)C[C@@H]3C)ccc2s1 [(2R)-3-[(2S)-2-methyl-4-({5-[4-chlorophenyl]isoxazol-3-yl}methyl)piperazinyl]-1-(2-methylbenzothiazol-5-yloxy)propan-2-ol] |
| 10700 nM | (2R)-3-(2-methylbenzothiazol-5-yloxy)-1-(4-{[5-(4-methylphenyl)(1,3,4-oxadiazol-2-yl)]methyl}piperazinyl)propan-2-ol |
| 2700 nM | (2R)-3-(2-methylbenzothiazol-5-yloxy)-1-{4-[(2-phenyl(1,3-thiazol-4-yl))methyl]piperazinyl}propan-2-ol |
| 60 nM | (2R)-3-{(3S)-3-methyl-4-[(5-(2-chlorophenyl)isoxazol-3-yl)methyl]piperazinyl}-1-(2-methylbenzothiazol-5-yloxy)propan-2-ol |
| 680 nM | (2R)-1-((3S)-4-{[5-(2,4-dichlorophenyl)(1,2,4-oxadiazol-3-yl)]methyl}-3-methylpiperazinyl)-3-(2-methylbenzothiazol-5-yloxy)propan-2-ol |
| 250 nM | (2R)-3-[(2S)-2-methyl-4-({5-[4-(trifluoromethyl)phenyl](1,2,4-oxadiazol-3-yl)}methyl)piperazinyl]-1-(2-methylbenzothiazol-5-yloxy)propan-2-ol |

Same assay, conditions: at 30 uM

| Compound | Effect on Palmitoyl CoA Oxidation, % at 30 uM |
| --- | --- |
| (2R)-3-(2-methylbenzothiazol-5-yloxy)-1-[4-({5-[3-(trifluoromethyl)phenyl](1,2,4-oxadiazol-3-yl)}methyl)piperazinyl]propan-2-ol | 58% at 30 uM |
